From doi:10.1101/2025.01.10.632200, “Chemoproteomic Profiling of C. albicans for Characterization of Anti-fungal Kinase Inhibitors” (bioRxiv, 2025)
Blank lines part the entries; values can stand above or below the compound they belong to.

How the values were obtained:
Assay type in all cases: biochemical
Yck2 [1] = target: T1, Yck2 (Candida albicans, UniProt A0A1D8PKB4); assay: purified enzyme kinase assay
Yck2 [2] = target: T1, Yck2; assay: purified enzyme kinase assay; also NanoBRET ([…]) and MIB/MS competition
p38α = target: T2, p38α (Homo sapiens, UniProt Q16539); assay: purified enzyme kinase assay; also NanoBRET ([…])
T2 construct: gene MAPK14

CK1α = target: T3, CK1α (Homo sapiens, UniProt P48729); assay: purified enzyme kinase assay
T3 construct: gene CSNK1A1
T3 sequence (P48729 2-337): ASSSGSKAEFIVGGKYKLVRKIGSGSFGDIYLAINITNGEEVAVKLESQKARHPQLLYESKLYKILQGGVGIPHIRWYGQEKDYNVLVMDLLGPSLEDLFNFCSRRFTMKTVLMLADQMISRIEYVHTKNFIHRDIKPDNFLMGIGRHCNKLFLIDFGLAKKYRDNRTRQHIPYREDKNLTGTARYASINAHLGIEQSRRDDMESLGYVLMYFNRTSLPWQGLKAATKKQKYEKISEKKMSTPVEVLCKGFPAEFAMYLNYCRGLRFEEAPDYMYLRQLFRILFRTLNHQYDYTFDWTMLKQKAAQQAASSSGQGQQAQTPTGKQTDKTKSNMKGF

Yck2 [3] = target: T1, Yck2; assay: purified enzyme kinase assay; also NanoBRET ([…])

T1 sequence (A0A1D8PKB4 entry or part of it): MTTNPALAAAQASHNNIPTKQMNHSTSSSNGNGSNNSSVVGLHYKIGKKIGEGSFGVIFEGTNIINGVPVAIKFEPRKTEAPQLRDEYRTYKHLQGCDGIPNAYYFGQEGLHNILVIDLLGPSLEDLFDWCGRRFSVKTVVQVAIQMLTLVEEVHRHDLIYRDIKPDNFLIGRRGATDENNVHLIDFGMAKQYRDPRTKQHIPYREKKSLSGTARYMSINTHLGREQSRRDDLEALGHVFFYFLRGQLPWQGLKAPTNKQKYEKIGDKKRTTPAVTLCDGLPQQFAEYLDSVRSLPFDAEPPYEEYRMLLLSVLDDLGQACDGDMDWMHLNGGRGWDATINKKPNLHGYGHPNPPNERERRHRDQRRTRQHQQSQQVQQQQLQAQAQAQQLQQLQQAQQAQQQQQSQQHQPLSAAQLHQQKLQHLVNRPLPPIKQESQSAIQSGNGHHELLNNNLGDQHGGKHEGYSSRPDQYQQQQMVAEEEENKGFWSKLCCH
T2 sequence (Q16539 2-360): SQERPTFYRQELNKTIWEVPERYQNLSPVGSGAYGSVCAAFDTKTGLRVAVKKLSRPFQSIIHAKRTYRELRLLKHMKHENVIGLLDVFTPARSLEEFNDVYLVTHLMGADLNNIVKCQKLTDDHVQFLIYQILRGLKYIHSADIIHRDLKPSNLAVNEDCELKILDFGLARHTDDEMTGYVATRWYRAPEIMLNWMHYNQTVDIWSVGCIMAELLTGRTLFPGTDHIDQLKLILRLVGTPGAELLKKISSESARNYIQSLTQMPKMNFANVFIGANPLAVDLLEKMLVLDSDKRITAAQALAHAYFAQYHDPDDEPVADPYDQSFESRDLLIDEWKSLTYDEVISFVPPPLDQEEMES

SMILES: Cc1nc(N)sc1-c1ccnc(Nc2ccc(N3CCOCC3)cc2)n1 [Cyc-116]
IC50 (Yck2 [1]): 0.14 µM

SMILES: Cc1n[nH]c2ccc(-c3cc(OC[C@@H](N)Cc4ccccc4)cnc3-c3ccoc3)cc12 [GSK, GSK507358A]
IC50 (Yck2 [2]): 0.16 µM

IC50 (p38α): 0.17 µM
SMILES: Cc1ccc2c(-c3ccncc3)c(-c3ccc(F)cc3)nn2c1 [GW, GW461484A]

IC50 (CK1α): 0.014 µM
SMILES: CN1CCC(F)(Cn2cnc(-c3ccc(F)cn3)c2-c2ccnc3[nH]ccc23)CC1 [MU1742]

SMILES: CC(=O)c1cnc2ccc(-c3cc(Cl)c(O)c(Cl)c3)nc2c1N[C@H]1CC[C@H](CN(C)C)CC1 [OTS-167]
IC50 (Yck2 [3]): 0.13 µM
